From patent US4143133A, “Claudogenic-interceptive nonapeptides” (American Home Products Corporation, priority 1977, dated 1979)

Legend:
[1] = system: Proestrous female Sprague-Dawley rats; experiment: Ovulation induction in Nembutal-treated proestrous rats; type: in vivo, rat; conditions: for Dose giving ovulation inducing activity in 100 percent of the rats: via the jugular vein, Nembutal 50 mg/kg i.p.
Procedure: The ovulation-induction properties of the nonapeptides of this invention was determined as follows:
Proestrous female Sprague-Dawley rats were injected intraperitoneally with a hypnotic dose of Nembutal® (50 mg/kg) at 1:30 P.M. Between 1:40 and 1:50 P.M. the rats received the test material via the jugular vein. The following morning the animals were sacraficed and the fallopian tubes examined for ova under a dissecting microscope. […] Thus, in its ovulation induction, the preferred compound of this invention, [D-2-(cyclohexyl)Gly^6, Pro-NHC2 H5^9 ]LHRH is about 10 times as active as [D-Ala^6, Pro-NHC2 H5^9 ]LH-RH and 30 times as active as LH-RH.

[2] = system: Mature, female, Sprague-Dawley rats; experiment: Anti-gravidity (claudogenic/interceptive) test in mated rats; type: in vivo; conditions: rat; for Claudogen (D 1-7), Minimal Effective Dose (100% effect): days 1-7 of pregnancy; for Interceptive (D 7-12), Minimal Effective Dose (100% effect): days 7-12 of pregnancy
[3] = system: Proestrous female Sprague-Dawley rats; experiment: Ovulation induction in Nembutal-treated proestrous rats; type: in vivo; conditions: P.O.; rat
[4] = cited from earlier work
[5] = system: LH secretion; conditions: cited from earlier work

CCNC(=O)[C@@H]1CCCN1C(=O)[C@H](CCCNC(=N)N)NC(=O)[C@H](CC(C)C)NC(=O)[C@H](NC(=O)[C@H](Cc1ccc(O)cc1)NC(=O)[C@H](CO)NC(=O)[C@H](Cc1c[nH]c2ccccc12)NC(=O)[C@H](Cc1c[nH]cn1)NC(=O)[C@@H]1CCC(=O)N1)C1CCCCC1 [Example 5, L-pyroglutamyl-L-histidyl-L-tryptophyl-L-seryl-L-tyrosyl-D-2-(cyclohexyl)glycyl-L-leucyl-L-arginyl-L-prolinethylamide]
Ovulation induction, Minimal Effective Dose (100% effect) ([1]; I.V., rat): 0.10 μ/rat | Ovulation induction activity relative to LH-RH ([1]; rat): ~30 times | Ovulation induction activity relative to [D-Ala^6, Pro-NHC2 H5^9 ]LH-RH ([1]; rat): about 10 times | Dose giving ovulation inducing activity in 100 percent of the rats [1]: 0.1 μg per rat | Claudogen (D 1-7), Minimal Effective Dose (100% effect) ([2]; P.O.): 200 μ/rat | Interceptive (D 7-12), Minimal Effective Dose (100% effect) ([2]; P.O.): > 1000 μ/rat | Claudogen (D 1-7), Minimal Effective Dose (100% effect) ([2]; S.C.): ~ 1.0 μ/rat | Interceptive (D 7-12), Minimal Effective Dose (100% effect) ([2]; S.C.): ~ 10 μ/rat | Ovulation induction, Minimal Effective Dose (100% effect) [3]: ~ 10 μ/rat

CCNC(=O)[C@@H]1CCCN1C(=O)[C@H](CCCNC(=N)N)NC(=O)[C@H](CC(C)C)N(C)C(=O)[C@H](NC(=O)[C@H](Cc1ccc(O)cc1)NC(=O)[C@H](CO)NC(=O)[C@H](Cc1c[nH]c2ccccc12)NC(=O)[C@H](Cc1c[nH]cn1)NC(=O)[C@@H]1CCC(=O)N1)C1CCCCC1 [Example 6]
Ovulation induction, Minimal Effective Dose (100% effect) ([1]; i.v., rat): 1.0 μg/rat | Dose giving ovulation inducing activity in 100 percent of the rats [1]: 1.0 μg per rat | Claudogen (D 1-7), Minimal Effective Dose (100% effect) ([2]; P.O.): > 1000 μg/rat | Interceptive (D 7-12), Minimal Effective Dose (100% effect) ([2]; P.O.): > 1000 μg/rat | Claudogen (D 1-7), Minimal Effective Dose (100% effect) ([2]; S.C.): 10 μg/rat | Interceptive (D 7-12), Minimal Effective Dose (100% effect) ([2]; S.C.): ~ 10 μg/rat | Ovulation induction, Minimal Effective Dose (100% effect) [3]: > 10 μg/rat

D-Ala^6 -LRH
Potency relative to LH-RH ([4]; Monahan et al. 1973): more potent than LH-RH

D-Ala^6, (N^α -Me)Leu^7 LH-RH
Potency in stimulating the secretion of LH, percent of LH-RH's potency ([5]; Ling et al. 1975): 560%

LH-RH (QHWSYGLRPG; Gonadoliberin-1; UniProt P01148 24-33, looked up) [native hormone used as comparison in ovulation induction, reference compound]
Dose giving ovulation inducing activity in 100 percent of the rats [1]: about 3 μg per rat

[D-Ala^6, des-Gly-NH2^10, Proethylamide]LH-RH [reference compound]
Dose giving ovulation inducing activity in 100 percent of the rats [1]: about 1 μg per rat | Potency in stimulating LH secretion relative to D-Ala^6 -LH-RH ([5]; Coy et al. 1974): about twice

des-Gly^10 -Pro-NHC2 H5 -LH-RH
Activity relative to LH-RH ([4]; Fujino et al. 1972): three to five times as active as LH-RH
